According to patent US4374147A, “13-Oxo-monic acid esters useful as antibacterial and antimycoplasmal agents” (Beecham Group Limited, priority 1980, dated 1983):
≈ marks a conversion by molar mass, not a printed value.

How the values were obtained:
Bacillus subtilis 6633 = experiment: MIC by serial dilution in nutrient agar (human bacteria, Table 1); type: cell-based; details: 5% "chocolated" horse blood
Strep.faecalis I = experiment: as above; type: cell-based; details: Enterococcus faecalis, 5% "chocolated" horse blood
P. mirabilis 889 = experiment: as above; type: cell-based; details: Proteus mirabilis, 5% "chocolated" horse blood
[1] = system: Haemophilus influenzae Q1; experiment: as above; type: cell-based; details: Haemophilus influenzae Q1; nutrient agar, 5% "chocolated" horse blood; read-out: MIC
E.coli NCTC 10418 [2] = experiment: as above; type: cell-based; details: Escherichia coli, NCTC10418, 5% "chocolated" horse blood
Strep.pyogenes C 2761 = experiment: as above; type: cell-based; details: Streptococcus pyogenes, C2761, 5% "chocolated" horse blood
[3] = system: Pasteurella multocida 1633; experiment: as above; type: cell-based; details: Pasteurella multocida 1633; nutrient agar, 5% "chocolated" horse blood; read-out: MIC
Staph. aureus W2827 = experiment: MIC by serial dilution in nutrient agar (human bacteria, Table 1, footnote b); type: cell-based; details: Staphylococcus aureus, Staph. aureus W2827 (footnote b, in line Staph.aureus 1517), 5% "chocolated" horse blood
[4] = system: Neisseria catarrhalis 1502; experiment: MIC by serial dilution in nutrient agar (human bacteria, Table 1); type: cell-based; details: 5% "chocolated" horse blood
Ps. aeruginosa 10662 = experiment: as above; type: cell-based; details: Pseudomonas aeruginosa, 5% "chocolated" horse blood
Staph.aureus Russell = experiment: as above; type: cell-based; details: Staphylococcus aureus
[5] = system: M.suipneumoniae J2206/183b; experiment: Anti-mycoplasmal MIC in Friis broth solidified with agarose (Table 3); type: cell-based; details: Mesomycoplasma hyopneumoniae, 144 h, 6 days, 37° C., read-out: in vitro MIC
Experimental: (§1) ^+ Determined in Friis broth solidified with 0.9% agarose. The
(§2) inoculum was 10^3 to 10^5 C.F.U. MIC's were recorded after 6 days

M.suipneumoniae Str.11 = experiment: as above; type: cell-based; details: Mesomycoplasma hyopneumoniae, 144 h, 6 days, 37° C., read-out: in vitro MIC
Experimental: as §1, §2

M.bovis NCTC 10131 = experiment: as above; type: cell-based; details: NCTC10131, 144 h, read-out: in vitro MIC
Experimental: as §1, §2

M.hyosynoviae ATCC 25591 = experiment: as above; type: cell-based; details: 144 h, 6 days, 37° C., read-out: in vitro MIC
Experimental: as §1, §2

[6] = system: M.pneumoniae (Mac) ATCC 15492; experiment: as above; type: cell-based; details: Mycoplasmoides pneumoniae, ATCC15492, 144 h, 6 days, 37° C., read-out: in vitro MIC
Experimental: as §1, §2

M.dispar NCTC 10125 = experiment: as above; type: cell-based; details: 144 h, 6 days, 37° C., read-out: in vitro MIC
Experimental: as §1, §2

M.hyorhinis ATCC 23234 = experiment: as above; type: cell-based; details: Mesomycoplasma hyorhinis, ATCC23234, 144 h, 6 days, 37° C., read-out: in vitro MIC
Experimental: as §1, §2

Strep.pyogenes B 2788 = experiment: MIC by serial dilution in nutrient agar (human bacteria, Table 1); type: cell-based; details: Streptococcus pyogenes, B2788, 5% "chocolated" horse blood
S.dublin S7 = experiment: MIC by agar dilution (veterinary bacteria, Table 2); type: cell-based; details: Salmonella enterica, diagnostic sensitivity test agar, 24 hours, 37° C.
Experimental: (§3) The MIC values were determined by agar dilution using diagnostic sensitivity test agar (Oxoid) using a multipoint inoculator delivering 0.001 ml of an inoculum adjusted to give 10^7 -10^8 organisms per ml and read after 24 hours incubation at 37° C.

Strep.dysgalactiae SPD1 = experiment: as above; type: cell-based; details: Streptococcus dysgalactiae, diagnostic sensitivity test agar, 24 hours, 37° C.
Experimental: as §3

S.typhimurium S18 = experiment: as above; type: cell-based; details: Salmonella enterica, diagnostic sensitivity test agar, 24 hours, 37° C.
Experimental: as §3

[7] = system: Staph.aureus 152 (pen sens); experiment: as above; type: cell-based; details: Staphylococcus aureus, diagnostic sensitivity test agar, 24 hours, 37° C.
Experimental: as §3

Past.multocida PA1 = experiment: as above; type: cell-based; details: Pasteurella multocida, diagnostic sensitivity test agar, 24 hours, 37° C.
Experimental: as §3

[8] = system: Strep.suis (group D) SPS11; experiment: as above; type: cell-based; details: Streptococcus suis, diagnostic sensitivity test agar, 24 hours, 37° C.
Experimental: as §3

[9] = system: Corynebacterium pyogenes CY1; experiment: as above; type: cell-based; details: Trueperella pyogenes, diagnostic sensitivity test agar, 24 hours, 37° C.
Experimental: as §3

Bord.bronchiseptica BO8 = experiment: as above; type: cell-based; details: Bordetella bronchiseptica, diagnostic sensitivity test agar, 24 hours, 37° C.
Experimental: as §3

E.coli NCTC 10418 [10] = experiment: as above; type: cell-based; details: Escherichia coli, NCTC10418, diagnostic sensitivity test agar, 24 hours, 37° C.
Experimental: as §3

Past.haemolytica PA5 = experiment: as above; type: cell-based; details: Mannheimia haemolytica, diagnostic sensitivity test agar, 24 hours, 37° C.
Experimental: as §3

Strep.uberis SPU1 = experiment: as above; type: cell-based; details: Streptococcus uberis, diagnostic sensitivity test agar, 24 hours, 37° C.
Experimental: as §3

Staph.aureus Oxford [11] = experiment: as above; type: cell-based; details: Staphylococcus aureus, diagnostic sensitivity test agar, 24 hours, 37° C.
Experimental: as §3

E.coli E1 = experiment: as above; type: cell-based; details: Escherichia coli, diagnostic sensitivity test agar, 24 hours, 37° C.
Experimental: as §3

Bord.bronchiseptica BO9 = experiment: as above; type: cell-based; details: Bordetella bronchiseptica, diagnostic sensitivity test agar, 24 hours, 37° C.
Experimental: as §3

[12] = system: Erysipelothrix rhusiopathiae NCTC 8163; experiment: as above; type: cell-based; details: NCTC8163, diagnostic sensitivity test agar, 24 hours, 37° C.
Experimental: as §3

[13] = system: Staph.aureus B4 (pen resis); experiment: as above; type: cell-based; details: Staphylococcus aureus, diagnostic sensitivity test agar, 24 hours, 37° C.
Experimental: as §3

Past.multocida PA2 = experiment: as above; type: cell-based; details: Pasteurella multocida, diagnostic sensitivity test agar, 24 hours, 37° C.
Experimental: as §3

Strep.agalactiae SPA1 = experiment: as above; type: cell-based; details: Streptococcus agalactiae, diagnostic sensitivity test agar, 24 hours, 37° C.
Experimental: as §3

Strep.pyogenes A 64/848 = experiment: MIC by serial dilution in nutrient agar (human bacteria, Table 1); type: cell-based; details: Streptococcus pyogenes, A64/848, 5% "chocolated" horse blood
E.coli ESS = experiment: as above; type: cell-based; details: Escherichia coli, 5% "chocolated" horse blood
Staph.aureus Oxford [14] = experiment: as above; type: cell-based; details: Staphylococcus aureus
K. aerogenes A = experiment: as above; type: cell-based; details: Klebsiella aerogenes, 5% "chocolated" horse blood
[15] = system: Haemophilus influenzae Wy21; experiment: as above; type: cell-based; details: 5% "chocolated" horse blood
Strep.pneumoniae CN33 = experiment: as above; type: cell-based; details: Streptococcus pneumoniae, 5% "chocolated" horse blood
[16] = system: Gram-positive and Gram-negative organisms; details: disclosed in earlier patents; cited from earlier work
mycoplasma organisms = details: disclosed in earlier patents; cited from earlier work

CCOC(=O)C=C(C)CC1OCC(CC2OC2C(C)C(C)=O)C(O)C1O (stereo not shown) [Example 5, Ethyl 4-(5-(2,3-epoxy-4-methylhexan-5-onyl)-3,4-dihydroxytetrahydropyran-2-yl)-3-methylbut-2-enoate]
MIC (Bacillus subtilis 6633): 10 µg/mL (≈ 27 µM) | MIC (Strep.faecalis I): > 100 µg/mL | MIC (P. mirabilis 889): 100 µg/mL (≈ 270 µM) | MIC [1]: 1 µg/mL (≈ 2.7 µM) | MIC (E.coli NCTC 10418 [2]): > 100 µg/mL | MIC (Strep.pyogenes C 2761): 100 µg/mL (≈ 270 µM) | MIC [3]: 10 µg/mL (≈ 27 µM) | MIC (Staph. aureus W2827): 5 µg/mL (≈ 13.5 µM) | MIC [4]: 2.5 µg/mL (≈ 6.75 µM) | MIC (Ps. aeruginosa 10662): > 100 µg/mL | MIC (Staph.aureus Russell): 5 µg/mL (≈ 13.5 µM) | MIC [5]: 5 µg/mL (≈ 13.5 µM) | MIC (M.suipneumoniae Str.11): 2.5 µg/mL (≈ 6.75 µM) | MIC (M.bovis NCTC 10131): 0.1 µg/mL (≈ 0.27 µM) | MIC (M.hyosynoviae ATCC 25591): 2.5 µg/mL (≈ 6.75 µM) | MIC [6]: > 10 µg/mL | MIC (M.dispar NCTC 10125): 1 µg/mL (≈ 2.7 µM) | MIC (M.hyorhinis ATCC 23234): 5 µg/mL (≈ 13.5 µM) | MIC (Strep.pyogenes B 2788): 50 µg/mL (≈ 135 µM) | MIC (S.dublin S7): > 80 µg/mL | MIC (Strep.dysgalactiae SPD1): 20 µg/mL (≈ 54 µM) | MIC (S.typhimurium S18): > 80 µg/mL | MIC [7]: 0.625 µg/mL (≈ 1.69 µM) | MIC (Past.multocida PA1): 2.5 µg/mL (≈ 6.75 µM) | MIC [8]: > 80 µg/mL | MIC [9]: > 80 µg/mL | MIC (Bord.bronchiseptica BO8): > 80 µg/mL | MIC (E.coli NCTC 10418 [10]): > 80 µg/mL | MIC (Past.haemolytica PA5): 10 µg/mL (≈ 27 µM) | MIC (Strep.uberis SPU1): 2.5 µg/mL (≈ 6.75 µM) | MIC (Staph.aureus Oxford [11]): 0.625 µg/mL (≈ 1.69 µM) | MIC (E.coli E1): > 80 µg/mL | MIC (Bord.bronchiseptica BO9): 80 µg/mL (≈ 216 µM) | MIC [12]: > 80 µg/mL | MIC [13]: 0.625 µg/mL (≈ 1.69 µM) | MIC (Past.multocida PA2): 0.625 µg/mL (≈ 1.69 µM) | MIC (Strep.agalactiae SPA1): 20 µg/mL (≈ 54 µM) | MIC (Strep.pyogenes A 64/848): 50 µg/mL (≈ 135 µM) | MIC (E.coli ESS): 10 µg/mL (≈ 27 µM) | MIC (Staph.aureus Oxford [14]): 5 µg/mL (≈ 13.5 µM) | MIC (K. aerogenes A): > 100 µg/mL | MIC [15]: 1 µg/mL (≈ 2.7 µM) | MIC (Strep.pneumoniae CN33): 10 µg/mL (≈ 27 µM)

CC(=CC(=O)OCCCCCCCCC(=O)O)CC1OCC(CC2OC2C(C)C(C)O)C(O)C1O (stereo not shown) [Pseudomonic acid]
antibacterial activity [16]: having antibacterial activity

C/C(=C\C(=O)O)CC1OCC(CC2OC2C(C)C(C)O)C(O)C1O (stereo not shown) [monic acid A]
anti-mycoplasmal activity (mycoplasma organisms): does not appear to have antibacterial or anti-mycoplasmal activity | antibacterial activity [16]: does not appear to have antibacterial or anti-mycoplasmal activity
